Experimental data: paper PMC7377239, “Cardiovascular Effects of Polychlorinated Biphenyls and Their Major Metabolites” (Environmental Health Perspectives, 2020)
Where two headings read alike, the source gives them in different places.

Key:
[1] = tested on: iPSC-CMs, iPSC-ECs and HUVECs phenotypes; assay: ToxPi 2.0 integration of POD values and physicochemical descriptors; design: species or system human; conditions: ToxPi-scaled (0-1) score; for huvec.cyto.24hr / huvec.mito.24hr / huvec.mitoint.24hr / huvec.nma.24hr / huvec.tc.24hr / huvec.mtl.18hr / huvec.tlps.18hr / huvec.tta.18hr / huvec.ttl.18hr: HUVECs; for huvec.mtl.18hr / huvec.tlps.18hr / huvec.tta.18hr / huvec.ttl.18hr / endo.mtl.18hr / endo.tlps.18hr / endo.tta.18hr / endo.ttl.18hr: tube formation; for cm.amp.avg.90min / cm.amp.cv.90min / cm.bpm.90min / cm.cam.90min / cm.decay.rise.90min / cm.mii.90min / cm.mito.90min / cm.spacing.cv.90min / cm.tc.90min / cm.amp.avg.24hrs / cm.amp.cv.24hrs / cm.bpm.24hrs / cm.cam.24hrs / cm.decay.rise.24hrs / cm.mii.24hrs / cm.mito.24hrs / cm.spacing.cv.24hrs / cm.tc.24hrs: iPSC cardiomyocytes; for endo.cyto.24hr / endo.mito.24hr / endo.mitoint.24hr / endo.nma.24hr / endo.tc.24hr / endo.mtl.18hr / endo.tlps.18hr / endo.tta.18hr / endo.ttl.18hr: iPSC endothelial cells
Description: Phenotypic responses were quantitatively assessed using concentration–response modeling as detailed elsewhere ([Sirenko et al. 2017]). Briefly, phenotypic readouts were normalized to vehicle controls and fit to a four-parameter logistic model in R studio software (version 3.1.1; R Development Core Team). Following EPA guidance on dose–response modeling, a cutoff of one standard deviation across means of vehicle control (i.e., 0.5% vol/vol DMSO in cell culture media) wells was applied to determine the point-of-departure (POD) values ([U.S. EPA 2012]). In the absence of a concentration–response, the highest tested concentration (i.e., 100μM ) was assigned as “no observable adverse effect level.” The concentration–response assessment R script, as well as templates for vehicle and concentration–response data, are available as a supplement to Sirenko et al. ([2017]). The ability of physicochemical properties to predict differences in PODs were evaluated by multiregression and mixed-effects modeling using R.
POD values were then integrated using ToxPi 2.0 ([Marvel et al. 2018]) software. In ToxPi, each slice is representative of cell type– and time-point–specific phenotypes. The area of each slice is proportional to the relative value (e.g., bioactivity or physicochemical descriptor value) of the chemical within the data set. ToxPi scores were used to rank PCBs and their metabolites according to their overall bioactivity and to determine variability in total observable biological responses and chemical characteristics for each major metabolite class and chlorination status (mono-, hexa-chlorinated). Additional visualizations such as dumbbell and principal components analysis plots were generated in R Studio (version 1.1.456; R version 3.5.1; R Development Core Team) using the ggplot2 package.

HUVECs = assay: Tube formation (tubulogenesis) assay in HUVECs, 18 h; type: cell-based, human; conditions: Homo sapiens, HUVEC, 18 h, HUVEC; for activity at 0.01 µM: concentration 0.01 µM; for activity at 0.1 µM: concentration 0.10 µM; for activity at 1 µM: concentration 1.00 µM; for activity at 10 µM: concentration 10.00 µM; for activity at 100 µM: concentration 100.00 µM
How it was run: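 HUVECs (passage 1–5) seeded on reduced-growth-factor basement membrane and exposed to compounds overnight at 37°C, 5% CO2, in 2× maintenance medium with 12.5 ng/mL VEGF; 0.5% DMSO vehicle. Calcein AM-stained tube networks imaged and analysed; vehicle-normalized readouts fit to four-parameter logistic, POD set at one SD of vehicle means.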

[2] = tube formation mtl, read-out: POD huvec.mtl.18hr
[3] = tube formation tlps, read-out: POD huvec.tlps.18hr
[4] = tube formation tta, read-out: POD huvec.tta.18hr
[5] = tube formation ttl, read-out: POD huvec.ttl.18hr
[6] = HUVECs tube formation, 0.00 µM = 100.00, read-out: huvec.mtl.18hr
[7] = HUVECs tube formation, 0.00 µM = 100.00, read-out: huvec.tlps.18hr
[8] = HUVECs tube formation, 0.00 µM = 100.00, read-out: huvec.tta.18hr
[9] = HUVECs tube formation, 0.00 µM = 100.00, read-out: huvec.ttl.18hr

Structure (SMILES): Oc1ccc(O)c(-c2ccc(Cl)cc2)c1 [2',5'-diOH-PCB 3, 4-Chloro-2′,5′-dihydroxybiphenyl]
- huvec.cyto.24hr [1]: 0.7001
- huvec.mito.24hr [1]: 0.7865
- huvec.mitoint.24hr [1]: 0.6634
- huvec.nma.24hr [1]: 0.309
- huvec.tc.24hr [1]: 0.7001
- huvec.mtl.18hr [1]: 0.9783
- huvec.tlps.18hr [1]: 0.7891
- huvec.tta.18hr [1]: 0.8497
- huvec.ttl.18hr [1]: 0.663
- cm.amp.avg.90min [1]: 0.2608
- cm.amp.cv.90min [1]: 0.5898
- cm.bpm.90min [1]: 0.1802
- cm.cam.90min [1]: 0.4648
- cm.decay.rise.90min [1]: 0.2325
- cm.mii.90min [1]: 0.9473
- cm.mito.90min [1]: 0.8423
- cm.spacing.cv.90min [1]: 0.3549
- cm.tc.90min [1]: 0.4501
- cm.amp.avg.24hrs [1]: 0.4147
- cm.amp.cv.24hrs [1]: 0.7626
- cm.bpm.24hrs [1]: 0.7331
- cm.cam.24hrs [1]: 0.5361
- cm.decay.rise.24hrs [1]: 0.935
- cm.mii.24hrs [1]: 1
- cm.mito.24hrs [1]: 1
- cm.spacing.cv.24hrs [1]: 1
- cm.tc.24hrs [1]: 0.9136
- endo.cyto.24hr [1]: 0.4719
- endo.mito.24hr [1]: 0.4719
- endo.mitoint.24hr [1]: 0.1112
- endo.nma.24hr [1]: 0.3504
- endo.tc.24hr [1]: 0.5028
- endo.mtl.18hr [1]: 0.5595
- endo.tlps.18hr [1]: 0.8388
- endo.tta.18hr [1]: 0.3744
- endo.ttl.18hr [1]: 0.3867
- minimal effective concentration (HUVECs; [2]): 1.26 µM
- minimal effective concentration (HUVECs; [3]): 1.55 µM
- minimal effective concentration (HUVECs; [4]): 1.39 µM
- minimal effective concentration (HUVECs; [5]): 1.23 µM

Structure (SMILES): Oc1ccccc1-c1ccc(Cl)cc1 [2'-OH-PCB 3]
- huvec.cyto.24hr [1]: 0.3062
- huvec.mito.24hr [1]: 0.3804
- huvec.mitoint.24hr [1]: 0.2116
- huvec.nma.24hr [1]: 0.5273
- huvec.tc.24hr [1]: 0.3062
- huvec.mtl.18hr [1]: 0
- huvec.tlps.18hr [1]: 0.9781
- huvec.tta.18hr [1]: 0
- huvec.ttl.18hr [1]: 0
- cm.amp.avg.90min [1]: 1
- cm.amp.cv.90min [1]: 1
- cm.bpm.90min [1]: 0.6048
- cm.cam.90min [1]: 0.4595
- cm.decay.rise.90min [1]: 0.9737
- cm.mii.90min [1]: 0.8925
- cm.mito.90min [1]: 0.3599
- cm.spacing.cv.90min [1]: 0.3323
- cm.tc.90min [1]: 0.4365
- cm.amp.avg.24hrs [1]: 0.2407
- cm.amp.cv.24hrs [1]: 0.05985
- cm.bpm.24hrs [1]: 0.1658
- cm.cam.24hrs [1]: 0.1217
- cm.decay.rise.24hrs [1]: 0.6737
- cm.mii.24hrs [1]: 0.7202
- cm.mito.24hrs [1]: 0.2606
- cm.spacing.cv.24hrs [1]: 0.1842
- cm.tc.24hrs [1]: 0.2359
- endo.cyto.24hr [1]: 0.1423
- endo.mito.24hr [1]: 0.1423
- endo.mitoint.24hr [1]: 0
- endo.nma.24hr [1]: 0.7069
- endo.tc.24hr [1]: 0.06754
- endo.mtl.18hr [1]: 0.2097
- endo.tlps.18hr [1]: 0.3809
- endo.tta.18hr [1]: 0.1099
- endo.ttl.18hr [1]: 0.1352
- minimal effective concentration (HUVECs; [2]): 100 µM
- minimal effective concentration (HUVECs; [3]): 0.57 µM
- minimal effective concentration (HUVECs; [4]): 100 µM
- minimal effective concentration (HUVECs; [5]): 100 µM

Structure (SMILES): Oc1cccc(-c2ccc(Cl)cc2)c1 [3'-OH-PCB 3]
- huvec.cyto.24hr [1]: 0.4672
- huvec.mito.24hr [1]: 0.5506
- huvec.mitoint.24hr [1]: 0.1749
- huvec.nma.24hr [1]: 1
- huvec.tc.24hr [1]: 0.4672
- huvec.mtl.18hr [1]: 1
- huvec.tlps.18hr [1]: 0.8699
- huvec.tta.18hr [1]: 0.6576
- huvec.ttl.18hr [1]: 0.5155
- cm.amp.avg.90min [1]: 0.6872
- cm.amp.cv.90min [1]: 0.2705
- cm.bpm.90min [1]: 0.8835
- cm.cam.90min [1]: 0.7562
- cm.decay.rise.90min [1]: 0.4777
- cm.mii.90min [1]: 0.3912
- cm.mito.90min [1]: 0.7743
- cm.spacing.cv.90min [1]: 0.07935
- cm.tc.90min [1]: 0.7836
- cm.amp.avg.24hrs [1]: 0.4464
- cm.amp.cv.24hrs [1]: 0.3812
- cm.bpm.24hrs [1]: 0.4553
- cm.cam.24hrs [1]: 0.2634
- cm.decay.rise.24hrs [1]: 0.8154
- cm.mii.24hrs [1]: 0.3889
- cm.mito.24hrs [1]: 0.4239
- cm.spacing.cv.24hrs [1]: 0.8008
- cm.tc.24hrs [1]: 0.4277
- endo.cyto.24hr [1]: 0.1365
- endo.mito.24hr [1]: 0.1365
- endo.mitoint.24hr [1]: 0
- endo.nma.24hr [1]: 0.4106
- endo.tc.24hr [1]: 0.1112
- endo.mtl.18hr [1]: 0.5876
- endo.tlps.18hr [1]: 0.7333
- endo.tta.18hr [1]: 0.4844
- endo.ttl.18hr [1]: 0.4865
- minimal effective concentration (HUVECs; [2]): 1.14 µM
- minimal effective concentration (HUVECs; [3]): 1.01 µM
- minimal effective concentration (HUVECs; [4]): 3.65 µM
- minimal effective concentration (HUVECs; [5]): 3.26 µM

Structure (SMILES): Clc1cc(Cl)c(-c2cc(Cl)c(Cl)cc2Cl)cc1Cl [PCB153]
- minimal effective concentration (HUVECs; HUVECs tube formation, MAX 100.00, read-out: huvec.mtl.18hr POD): 19.8 µM
- minimal effective concentration (HUVECs; HUVECs tube formation, MAX 100.00, read-out: huvec.tlps.18hr POD): 61.8 µM
- minimal effective concentration (HUVECs; HUVECs tube formation, MAX 100.00, read-out: huvec.tta.18hr POD): 8.87 µM
- minimal effective concentration (HUVECs; HUVECs tube formation, MAX 100.00, read-out: huvec.ttl.18hr POD): 0.13 µM
- activity at 0.01 µM (HUVECs; [6]): 88.3%
- activity at 0.01 µM (HUVECs; [7]): 103%
- activity at 0.01 µM (HUVECs; [8]): 72.1%
- activity at 0.01 µM (HUVECs; [9]): 66.9%
- activity at 0.1 µM (HUVECs; [6]): 95.5%
- activity at 0.1 µM (HUVECs; [7]): 80.3%
- activity at 0.1 µM (HUVECs; [8]): 103%
- activity at 0.1 µM (HUVECs; [9]): 95.6%
- activity at 1 µM (HUVECs; [6]): 88.7%
- activity at 1 µM (HUVECs; [7]): 89.4%
- activity at 1 µM (HUVECs; [8]): 73.7%
- activity at 1 µM (HUVECs; [9]): 66.3%
- activity at 10 µM (HUVECs; [6]): 95.2%
- activity at 10 µM (HUVECs; [7]): 107%
- activity at 10 µM (HUVECs; [8]): 115%
- activity at 10 µM (HUVECs; [9]): 106%
- activity at 100 µM (HUVECs; [6]): 65.2%
- activity at 100 µM (HUVECs; [7]): 61%
- activity at 100 µM (HUVECs; [8]): 54.1%
- activity at 100 µM (HUVECs; [9]): 48%
